Data set [1] relates to ketamine-induced working memory deficits. Kind of data set: Ketamine-disrupted radial arm maze (RAM). The conditions noted are these: 0.01, 0.056, 0.178, 0.56 mg/kg s.c., 90 min before ketamine 10 mg/kg. It is filed as in vivo, rat. The source says:
Two cohorts of adult male Long-Evans rats (N=30 each) were trained in a spatial working memory task on an eight-arm RAM, (Pathfinder Maze System, Lafayette Instrument Co., Lafayette, IN), using a procedure adapted from [Ward et al. (1990)] and described in detail in [Strick et al. (2011)]. Briefly, rats were food-restricted to provide motivation to perform the RAM task. The task requires that the animals enter each arm to retrieve a reinforcement food pellets, using spatial cues in the room to remember which arms of the maze they have previously entered. Rats were individually placed on the maze and allowed to navigate until all eight arms were entered and the pellets were consumed or until 30 choices were made, or until 5 min had elapsed. Entry into an arm previously entered was counted as an error. […] Training continued until all animals had reached the training criterion, defined as two or fewer errors on two consecutive days. […] Performance on the maze was evaluated 30 min later by an observer that was blinded to treatments.
The R 3.0.1 statistical software was used to compare the error rate data. The effects of treatment and the interaction on the error rate were assessed using a one-way mixed model ANOVA using generalized least squares method from lme4 library. […]

The test system of the next data set is human D1 receptor. To be noted: stated in discussion, no data or reference printed; cited from earlier work.
Data set [2] relates to ketamine-induced working memory deficits. The data set is described as follows: Spatial delayed response (SDR) task in the nonhuman primate. It is filed as in vivo, rhesus monkeys. An excerpt: This study was designed to test the hypothesis that PF-6142 would provide significant protection versus the ketamine-induced working memory deficits in nonhuman primates.
Rhesus monkeys were trained to stability on a variable SDR task in a sound-attenuated Wisconsin General Testing Apparatus ([Roberts et al., 2010]). Briefly, subjects observe while the investigator baiting one of two to seven wells with a highly preferred food reward and then covers all the wells with identical square plaques. An opaque screen is then lowered for one of five variable delays, which are pseudorandomized across trials within a session. Thus, delays are defined as 0–4 N, where “N” is a value that is animal dependent and ranges from 1 to 10 s depending upon the difficulty level of the task at which an animal reaches the criterion of stable performance. At the end of the delay period, the opaque screen is raised, and the animal must select the well that had been baited to obtain a reward. Each test session consists of 20 trials wherein both the baited well and delay length are pseudorandomized across trials. Before study initiation, all subjects were required to reach stability over a period of 10 consecutive test sessions, where stability was defined as an average of 65–75% correct. Stability was attained by varying the number of wells and the delay value for each animal. Subjects were originally trained on a two-well board with an N value of 1. […] Once stability was attained for a given number of wells and N value, that combination was kept constant throughout the course of the study ([Roberts et al., 2010]). The range of stable performance for the 10 subjects was two to five wells and an N value of 1–7 s (median, four-well testing board, N = 5 s). Data were transformed using logarithmic function [log(x+5)] to improve normality and analyzed using ANOVA.
Subjects received pretreatment with vehicle (sterile saline solution) or PF-6142 (0.0015, 0.015, 0.15 mg/kg, s.c.) 4 h before cognitive testing. They then received an intramuscular injection of either vehicle (sterile saline) or ketamine (0.7–1.7 mg/kg; Fort Dodge Co.) 0.25 h before cognitive testing. […] Thus, for the present study, one monkey received 0.7 mg/kg, seven monkeys received 1.0 mg/kg, and two monkeys received 1.7 mg/kg of ketamine. The vehicle/PF-6142 and vehicle/ketamine treatments were assigned using a randomized Latin square design with a total of eight conditions. Except for the vehicle/vehicle condition, there was a minimum 2-week washout period between all acute challenges during which time animals were required to “restabilize” to baseline performance levels, which was defined as at least three consecutive testing sessions wherein cognitive performance ranged between 65% and 75% correct.

A further data set concerns mouse locomotor activity. The data set is described as follows: Mouse locomotor activity (LMA). It is filed as in vivo. On the procedure:
Locomotor activity data were measured by an automated infrared photo-beam system in sound attenuating chambers controlled by Versamax® software, provided by Accuscan Instruments Inc. (Columbus, Ohio), which quantified beam breaks similar to the methods used previously ([Xu et al., 2000]). To test D1 receptor selectivity in a pharmacologic model, C57BL/6J mice were habituated to the apparatus for 90 min, followed by pretreatment with vehicle or SCH-23390 (0.01, 0.032, 0.1 0.32, s.c.) and returned to the apparatus for 30 min. […] Data were compared against the vehicle group using a repeated measures one-way ANOVA with a Dunnett’s post-test. To test D1 receptor selectivity in a genetic model, DRD1a WT and knockout mice (D1 KO) were habituated to the apparatus for 90 min, pretreated with vehicle or SCH-23390 (0.032 mg/kg, s.c.) and returned to the apparatus for 30 min. […] Data were compared within genotype using a two-way ANOVA with a Dunnett’s post-hoc test versus vehicle treated group.

Data set [3] is described as follows: Plasma exposure (PK), rat. The format is in vivo. To be noted: 10 mg/kg SC, 1.5 h. How it is done:
Across the set of experiments, PK was either collected from satellite animals or in separate, dedicated studies. In addition to plasma PK, exposures were obtained in brain tissue for rat and mouse, and plasma protein binding and brain tissue binding were measured. Using the measured exposures, partitioning, and binding parameters, and the […]

These results are taken from publication PMC7358525, “Characterization of PF-6142, a Novel, Non-Catecholamine Dopamine Receptor D1 Agonist, in Murine and Nonhuman Primate Models of Dopaminergic Activation” (Frontiers in Pharmacology, 2020).

On to `Cc1cc(Oc2nccc3occc23)ccc1-c1c(C)ncc2nccn12` [PF-6142], for which the “ketamine-induced error rate in RAM” value in data set [1] is given as “decreased the ketamine-induced error rate at all, except for the lowest dose administered”. For the same compound, the affinity entry in the data set on human D1 receptor is reported as “moderate affinity”. In data set [2] (PF-6142 0.0015-0.15 mg/kg s.c. 4 h before testing), the “percent correct on the SDR task after pretreatment + ketamine (range over doses)” value is listed as 42.5–52.1%. Besides, the “improvement of performance vs ketamine” value in data set [2] (PF-6142 0.0015-0.15 mg/kg s.c., all doses) is recorded as “more than 10 % correct”. Also, the “working memory performance under normal conditions (pretreatment followed by placebo)” value in data set [2] (PF-6142 without ketamine) is reported as “no effect on its own”. Besides, the “horizontal activity, five consecutive days of dosing” value is “did not significantly increase horizontal activity” in the data set with mouse locomotor activity (1.78 mg/kg daily); “only increased activity significantly on days 4 and 5” in the data set on mouse locomotor activity (3.2 mg/kg s.c. daily (p=0.0311 day 4, p=0.0309 day 5)). In addition, the “locomotor activity, five consecutive days of dosing” value in the data set with mouse locomotor activity (10 mg/kg s.c. daily, CD-1 mice) was “increased locomotor activity”. Moreover, the locomotor activity result is “did not show hyperactivity” in the data set with mouse locomotor activity (D1 KO mice, 10 mg/kg s.c. (p=0.6731)) and “increased activity in the WT mice” with mouse locomotor activity (WT mice, 10 mg/kg s.c.). The “horizontal activity (beam breaks, 2 h)” value with mouse locomotor activity (acute 0.32-10 mg/kg s.c., significant at 10 mg/kg (p<0.0001)) is “dose-dependently increased horizontal activity”. Moreover, the PF-6142 plasma concentration in data set [3] turned out to be 1260 ng/mL.
